Assay results taken from patent publication US20240116921A1, “LACTAM (HETERO)[…] DERIVATIVES AS INHIBITORS OF ERBB2” (EnLiven Therapeutics, Inc., priority 2020, published 2024).
Structures can show the parent of a compound that is named as a salt. Where two headings read alike, the source gives them in different places.

Key:
[1] = biological target: T1, phosphorylated ERBB2 (pERBB2) (Homo sapiens, UniProt P04626); experiment: Detection of phosphorylated ERBB2 (pERBB2) by ELISA in BT-474 cells; assay type: cell-based; conditions: four hours incubation
T1 construct: endogenous in cells; host or cells: BT-474
T1 sequence (P04626 23-1255): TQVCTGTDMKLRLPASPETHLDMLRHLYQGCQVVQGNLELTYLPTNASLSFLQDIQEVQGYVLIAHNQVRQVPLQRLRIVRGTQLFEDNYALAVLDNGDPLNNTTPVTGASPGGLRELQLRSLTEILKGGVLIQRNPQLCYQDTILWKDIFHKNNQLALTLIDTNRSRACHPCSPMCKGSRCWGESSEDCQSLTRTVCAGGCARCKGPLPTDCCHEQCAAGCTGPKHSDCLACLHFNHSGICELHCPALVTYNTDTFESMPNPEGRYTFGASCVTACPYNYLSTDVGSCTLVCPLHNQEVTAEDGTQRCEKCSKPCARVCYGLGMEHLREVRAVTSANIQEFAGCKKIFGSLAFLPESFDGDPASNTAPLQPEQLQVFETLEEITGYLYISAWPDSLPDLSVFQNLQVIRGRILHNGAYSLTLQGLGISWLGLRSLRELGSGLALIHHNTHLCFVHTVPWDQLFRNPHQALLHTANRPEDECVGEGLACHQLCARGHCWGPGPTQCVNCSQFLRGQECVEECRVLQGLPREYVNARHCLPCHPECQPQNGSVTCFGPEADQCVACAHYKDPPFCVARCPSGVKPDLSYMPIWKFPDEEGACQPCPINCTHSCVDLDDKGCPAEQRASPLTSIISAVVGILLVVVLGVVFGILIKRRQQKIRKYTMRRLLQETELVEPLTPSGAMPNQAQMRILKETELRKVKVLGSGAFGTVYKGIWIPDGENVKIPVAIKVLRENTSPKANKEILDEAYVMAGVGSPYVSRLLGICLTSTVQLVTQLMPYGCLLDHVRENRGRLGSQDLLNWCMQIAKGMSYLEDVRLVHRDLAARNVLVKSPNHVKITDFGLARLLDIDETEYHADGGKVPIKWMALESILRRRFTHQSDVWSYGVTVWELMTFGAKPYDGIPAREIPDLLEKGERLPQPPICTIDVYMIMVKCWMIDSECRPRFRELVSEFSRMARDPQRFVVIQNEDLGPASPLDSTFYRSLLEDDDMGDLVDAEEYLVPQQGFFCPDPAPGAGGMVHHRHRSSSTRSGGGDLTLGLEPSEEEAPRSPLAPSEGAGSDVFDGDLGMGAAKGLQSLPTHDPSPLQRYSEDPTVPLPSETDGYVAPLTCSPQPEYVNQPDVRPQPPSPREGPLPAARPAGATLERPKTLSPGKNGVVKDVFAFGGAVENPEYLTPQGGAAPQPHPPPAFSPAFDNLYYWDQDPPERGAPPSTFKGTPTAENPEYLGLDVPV
Summary of the method: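 Phospho-ERBB2 in lysates was quantified by sandwich ELISA (A450, TMB) after 4 h compound exposure at 37 °C of BT-474 cells seeded at 2.0×10^4 per well. Compounds tested at 10 µM to 0.01 nM final in four-fold steps; activity normalized to DMSO (0.1%) high and cell-free low controls.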

[2] = biological target: T2, phosphorylated EGFR (pEGFR) (Homo sapiens, UniProt P00533); experiment: Detection of phosphorylated EGFR (pEGFR) in EGF-stimulated A431 cells; assay type: cell-based; conditions: A431 cells (10% FBS), 4 hours incubation, EGF 30 ng/mL 10 minutes, AlphaLISA
T2 construct: performed to measure phosphorylated EGFR levels using A431 cells (10% FBS); endogenous in cells; host or cells: A431
T2 sequence (P00533 25-1210): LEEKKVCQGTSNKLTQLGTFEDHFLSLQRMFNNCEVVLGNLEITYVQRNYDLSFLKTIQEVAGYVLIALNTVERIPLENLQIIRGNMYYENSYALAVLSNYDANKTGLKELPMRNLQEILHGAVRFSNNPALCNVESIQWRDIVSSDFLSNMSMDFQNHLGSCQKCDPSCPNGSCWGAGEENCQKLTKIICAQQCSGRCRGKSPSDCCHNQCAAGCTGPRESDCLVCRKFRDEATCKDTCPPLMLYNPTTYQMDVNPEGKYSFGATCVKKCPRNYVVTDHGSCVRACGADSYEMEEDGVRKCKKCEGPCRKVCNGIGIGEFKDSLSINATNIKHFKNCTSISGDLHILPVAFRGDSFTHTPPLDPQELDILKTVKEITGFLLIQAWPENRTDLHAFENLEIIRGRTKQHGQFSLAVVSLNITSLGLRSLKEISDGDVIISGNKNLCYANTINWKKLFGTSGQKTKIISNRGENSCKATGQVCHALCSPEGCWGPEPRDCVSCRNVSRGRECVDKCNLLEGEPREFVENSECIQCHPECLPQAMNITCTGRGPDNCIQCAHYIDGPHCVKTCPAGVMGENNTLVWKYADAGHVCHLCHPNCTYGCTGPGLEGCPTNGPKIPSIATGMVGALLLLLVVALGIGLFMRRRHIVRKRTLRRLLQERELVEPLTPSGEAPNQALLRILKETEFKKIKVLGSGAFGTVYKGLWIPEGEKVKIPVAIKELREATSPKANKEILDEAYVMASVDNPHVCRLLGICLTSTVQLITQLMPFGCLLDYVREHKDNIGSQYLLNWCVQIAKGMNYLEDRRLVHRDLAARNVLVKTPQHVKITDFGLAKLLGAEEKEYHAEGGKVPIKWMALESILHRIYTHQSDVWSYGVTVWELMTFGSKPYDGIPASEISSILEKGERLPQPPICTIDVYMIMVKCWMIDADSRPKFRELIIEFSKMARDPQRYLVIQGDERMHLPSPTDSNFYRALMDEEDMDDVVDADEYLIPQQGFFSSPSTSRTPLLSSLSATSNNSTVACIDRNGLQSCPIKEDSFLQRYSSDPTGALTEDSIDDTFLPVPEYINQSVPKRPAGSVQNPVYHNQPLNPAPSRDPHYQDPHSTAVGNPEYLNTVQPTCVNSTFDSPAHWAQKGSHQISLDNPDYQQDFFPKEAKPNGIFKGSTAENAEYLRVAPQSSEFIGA
Summary of the method: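 AlphaLISA read-out of EGFR phosphorylation after a 10-min EGF pulse (30 ng/mL final). A431 cells (10% FBS) had been exposed to compound for 4 h at 37 °C. IC50 was fitted from % inhibition normalised to DMSO and staurosporine control lysates.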

[3] = system: BT-474; experiment: Cell viability assay (CellTiter Glo), BT-474; assay type: cell-based; conditions: Homo sapiens; BT-474 cells, 72 hours, CellTiter Glo; read-out: IC50, cell viability, BT-474
[4] = system: A431; experiment: Cell viability assay (CellTiter Glo), A431; assay type: cell-based; conditions: Homo sapiens, A-431, A431 cells, 72 hours
[5] = biological target: Ba/F3 ERBB2 A775_G776insYVMA (Homo sapiens, UniProt P04626, DUP772-775, cells depend on it); experiment: Cell viability assay, Ba/F3 ERBB2 A775_G776insYVMA; assay type: cell-based, mouse; conditions: 72 hours, CellTiter Glo
Sequence of Ba/F3 ERBB2 A775_G776insYVMA (P04626 with tags, fused parts or gaps DUP772-775): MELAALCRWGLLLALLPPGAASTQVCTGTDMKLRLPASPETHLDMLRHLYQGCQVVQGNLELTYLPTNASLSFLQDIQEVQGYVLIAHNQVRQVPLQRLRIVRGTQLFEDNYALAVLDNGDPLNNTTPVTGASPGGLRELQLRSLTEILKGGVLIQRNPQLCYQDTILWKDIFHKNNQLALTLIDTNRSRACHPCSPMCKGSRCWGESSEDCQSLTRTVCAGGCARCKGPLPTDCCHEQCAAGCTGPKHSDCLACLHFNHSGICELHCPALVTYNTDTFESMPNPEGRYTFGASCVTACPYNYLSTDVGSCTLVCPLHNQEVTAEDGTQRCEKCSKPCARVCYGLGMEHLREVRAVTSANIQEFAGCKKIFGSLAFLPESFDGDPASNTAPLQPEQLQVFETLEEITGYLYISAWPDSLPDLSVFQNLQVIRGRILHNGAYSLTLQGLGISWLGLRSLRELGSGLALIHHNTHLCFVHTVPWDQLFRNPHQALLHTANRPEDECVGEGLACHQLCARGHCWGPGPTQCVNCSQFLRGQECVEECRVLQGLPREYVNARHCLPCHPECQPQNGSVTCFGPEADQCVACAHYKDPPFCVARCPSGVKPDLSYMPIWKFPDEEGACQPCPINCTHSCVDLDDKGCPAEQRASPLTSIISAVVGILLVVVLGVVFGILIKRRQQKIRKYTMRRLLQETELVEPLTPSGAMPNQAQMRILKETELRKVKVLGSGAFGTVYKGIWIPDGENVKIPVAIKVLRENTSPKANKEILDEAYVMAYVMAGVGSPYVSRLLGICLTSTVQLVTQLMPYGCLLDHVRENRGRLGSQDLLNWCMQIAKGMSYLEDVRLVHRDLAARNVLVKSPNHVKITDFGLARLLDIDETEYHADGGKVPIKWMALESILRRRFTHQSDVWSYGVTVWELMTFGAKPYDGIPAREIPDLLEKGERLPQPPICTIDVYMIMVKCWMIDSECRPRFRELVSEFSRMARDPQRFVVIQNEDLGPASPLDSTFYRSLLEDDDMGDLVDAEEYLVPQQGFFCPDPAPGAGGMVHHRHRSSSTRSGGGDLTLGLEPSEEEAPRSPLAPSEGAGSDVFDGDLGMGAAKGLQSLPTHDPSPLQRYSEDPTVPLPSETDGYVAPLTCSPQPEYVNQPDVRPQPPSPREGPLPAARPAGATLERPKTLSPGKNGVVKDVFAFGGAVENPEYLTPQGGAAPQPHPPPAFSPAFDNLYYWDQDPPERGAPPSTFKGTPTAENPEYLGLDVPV
Summary of the method: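 Viability after 72 h compound treatment (37 °C, 5% CO2) was quantified by CellTiter-Glo luminescence of intracellular ATP, with sigmoidal dose-response fitting. Cells were retrovirally engineered Ba/F3 lines whose growth depends on the mutant human ERBB2 in place of IL-3, plated at 3000 per well.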

[6] = Ba/F3 ERBB2 A775_G776insYVMA cells, Tables B2-B4, read-out: IC50, cell viability, Ba/F3 ERBB2 A775_G776insYVMA
[7] = Ba/F3 ERBB2 YVMA cells, cell viability, Table B5, read-out: Ba/F3 ERBB2 YVMA, IC50

SMILES | IC50 [1] | IC50 [2] | IC50 [3] | IC50 [4] | GI50 [5, 6] | GI50 [5, 7]
C=C1C(=O)N(c2ccc3ncnc(Nc4ccc(Oc5ccn6ncnc6c5)c(C)c4)c3c2)CC12CC2 [Compound 2, 5-[4-[(3-methyl-4-[[1,2,4]triazolo[1,5-a]pyridin-7-yloxy]phenyl)amino]quinazolin-6-yl]-7-methylidene-5-azaspiro[2.4]heptan-6-one] | 75.9 nM | > 10000 nM | 19.5 nM | – | – | –
C=C1CCN(c2ccc3ncnc(Nc4ccc(Oc5ccn(C)c(=O)c5)c(C)c4)c3c2)C1=O [Compound 5, 1-methyl-4-(2-methyl-4-[[6-(3-methylidene-2-oxopyrrolidin-1-yl)quinazolin-4-yl]amino]phenoxy)pyridin-2-one] | – | – | 27.8 nM | > 10000 nM | 236 nM | –
C=C1CCN(c2ccc3ncnc(Nc4ccc(Oc5cnc(C)cn5)c(C)c4)c3c2)C1=O [Compound 6, 1-[4-([3-methyl-4-[(5-methylpyrazin-2-yl)oxy]phenyl]amino)quinazolin-6-yl]-3-methylidenepyrrolidin-2-one] | – | – | 16.1 nM | > 6520 nM | > 1000 nM | –
C=C1CCN(c2ccc3ncnc(Nc4ccc(Cc5ccc(C)nc5)cc4)c3c2)C1=O [Compound 8, 3-methylidene-1-[4-([4-[(6-methylpyridin-3-yl)methyl]phenyl]amino)quinazolin-6-yl]pyrrolidin-2-one] | – | – | 52.9 nM | 7500 nM | – | –
C=C1CCN(c2ccc3ncnc(Nc4ccc(Cc5ccn6ncnc6c5)cc4)c3c2)C1=O [Compound 9, 3-methylidene-1-[4-[(4-[[1,2,4]triazolo[1,5-a]pyridin-7-ylmethyl]phenyl)amino]quinazolin-6-yl]pyrrolidin-2-one] | – | – | 44.7 nM | > 10000 nM | – | –
C=C1CCN(c2ccc3ncnc(Nc4ccc(Oc5ccn6ncnc6c5)c(Cl)c4)c3c2)C1=O [Compound 10, 1-[4-[(3-chloro-4-[[1,2,4]triazolo[1,5-a]pyridin-7-yloxy]phenyl)amino]quinazolin-6-yl]-3-methylidenepyrrolidin-2-one] | – | – | 27.1 nM | 673 nM | – | –
C=C1CCN(c2ccc3ncnc(Nc4ccc(Oc5ccn6ncnc6c5)c(F)c4)c3c2)C1=O [Compound 11, 1-[4-[(3-fluoro-4-[[1,2,4]triazolo[1,5-a]pyridin-7-yloxy]phenyl)amino]quinazolin-6-yl]-3-methylidenepyrrolidin-2-one] | – | – | 7670 nM | 6510 nM | – | –
C=C1CCN(c2ccc3ncnc(Nc4ccc(Oc5ccn6ncnc6c5)c(C)c4F)c3c2)C1=O [Compound 14, 1-[4-[(2-fluoro-3-methyl-4-[[1,2,4]triazolo[1,5-a]pyridin-7-yloxy]phenyl)amino]quinazolin-6-yl]-3-methylidenepyrrolidin-2-one] | 26.9 nM | 3800 nM | 4.32 nM | – | – | –
C=C1CCN(c2ccc3ncnc(Nc4cc(C)c(Oc5ccn6ncnc6c5)cc4F)c3c2)C1=O [Compound 15, 1-[4 [(2-fluoro-5-methyl-4-[[1,2,4]triazolo[1,5-a]pyridin-7-yloxy]phenyl)amino]quinazolin-6-yl]-3-methylidenepyrrolidin-2-one] | 8.15 nM | 1250 nM | 3.27 nM | – | 245 nM | –
C=C1CCN(c2ccc3ncnc(Nc4ccc(Cc5ccn6ncnc6c5)c(C)c4)c3c2)C1=O [Compound 16, 1-[4-[(3-methyl-4-[[1,2,4]triazolo[1,5-a]pyridin-7-ylmethyl]phenyl)amino]quinazolin-6-yl]-3-methylidenepyrrolidin-2-one] | 9.15 nM | 235 nM | 4.67 nM | – | 169 nM | –
Cc1cc(Nc2ncnc3ccc(N4CC/C(=C\CN(C)C)C4=O)cc23)ccc1Oc1ccn2ncnc2c1 [Compound 18, (E)-1-(4-(4-([1,2,4]triazolo[1,5-a]pyridin-7-yloxy)-3-methylphenylamino)quinazolin-6-yl)-3-(2-(dimethylamino)ethylidene)pyrrolidin-2-one hydrochloride] | 7.52 nM | > 9640 nM | 3.73 nM | – | 77.1 nM | –
CN(C)C/C=C1\CCN(c2cc3c(Nc4ccc(Oc5ccc6c(c5)ncn6C)c(F)c4)ncnc3cn2)C1=O [Compound 128, (3E)-3-[2-(dimethylamino)ethylidene]-1-[4-({3-fluoro-4-[(1-methyl-1,3-benzodiazol-5-yl)oxy]phenyl}amino)pyrido[3,4-d]pyrimidin-6-yl]pyrrolidin-2-one] | 21.4 nM | > 10000 nM | – | – | – | 7.9 nM
CN(C)C/C=C1\CCN(c2cc3c(Nc4ccc(Oc5ccn6ncnc6c5)c(F)c4)ncnc3cn2)C1=O [Compound 129, (3E)-3-[2-(dimethylamino)ethylidene]-1-{4-[(3-fluoro-4-{[1,2,4]triazolo[1,5-a]pyridin-7-yloxy}phenyl)amino]pyrido[3,4-d]pyrimidin-6-yl}pyrrolidin-2-one] | 11.9 nM | 2320 nM | – | – | – | 19.3 nM
Cc1cc(Nc2ncnc3ccc(N4CC/C(=C\CN(C)C)C4=O)nc23)ccc1Oc1cncc(F)c1 [Compound 130, (3E)-3-[2-(dimethylamino)ethylidene]-1-[4-({4-[(5-fluoropyridin-3-yl)oxy]-3-methylphenyl}amino)pyrido[3,2-d]pyrimidin-6-yl]pyrrolidin-2-one] | 40.6 nM | 187 nM | – | – | – | 17.8 nM
CN(C)C/C=C1\CCN(c2cc3c(Nc4cc(Cl)c(Oc5ccn6ncnc6c5)cc4F)ncnc3cn2)C1=O [Compound 133, (E)-1-(4-((4-([1,2,4]triazolo[1,5-a]pyridin-7-yloxy)-5-chloro-2-fluorophenyl)amino)pyrido[3,4-d]pyrimidin-6-yl)-3-(2-(dimethylamino)ethylidene)pyrrolidin-2-one] | 10.9 nM | 1140 nM | – | – | – | 16.9 nM
Cc1cc(Nc2ncnc3cnc(N4CC/C(=C\C5CN(C)C5)C4=O)cc23)c(F)cc1Oc1ccn2ncnc2c1 [Compound 138, (3E)-1-{4-[(2-fluoro-5-methyl-4-{[1,2,4]triazolo[1,5-a]pyridin-7-yloxy}phenyl)amino]pyrido[3,4-d]pyrimidin-6-yl}-3-[(1-methylazetidin-3-yl)methylidene]pyrrolidin-2-one] | 16.8 nM | > 10000 nM | – | – | – | 99.6 nM
Cc1cc(Nc2ncnc3ccc(N4CC/C(=C\C5CN(C)C5)C4=O)nc23)ccc1Oc1ccn2ncnc2c1 [Compound 139, (3E)-1-{4-[(3-methyl-4-{[1,2,4]triazolo[1,5-a]pyridin-7-yloxy}phenyl)amino]pyrido[3,2-d]pyrimidin-6-yl}-3-[(1-methylazetidin-3-yl)methylidene]pyrrolidin-2-one] | 14.3 nM | > 10000 nM | – | – | – | 15.7 nM
CN(C)C/C=C1\CCN(c2cc3c(Nc4cc(F)c(Oc5ccn6ncnc6c5)cc4F)ncnc3cn2)C1=O [Compound 140, (3E)-1-{4-[(2,5-difluoro-4-{[1,2,4]triazolo[1,5-a]pyridin-7-yloxy}phenyl)amino]pyrido[3,4-d]pyrimidin-6-yl}-3-[2-(dimethylamino)ethylidene]pyrrolidin-2-one] | 20.5 nM | > 10000 nM | – | – | – | 78.1 nM
CN(C)C/C=C1\CCN(c2ccc3ncnc(Nc4cc(F)c(Oc5ccn6ncnc6c5)cc4F)c3n2)C1=O [Compound 141, (E)-1-(4-((4-([1,2,4]triazolo[1,5-a]pyridin-7-yloxy)-2,5-difluorophenyl)amino)pyrido[3,2-d]pyrimidin-6-yl)-3-(2-(dimethylamino)ethylidene)pyrrolidin-2-one] | 23.8 nM | > 10000 nM | – | – | – | 28.5 nM
Cc1cc(Nc2ncnc3ccc(N4C(=O)/C(=C\CN(C)C)C5CC54)nc23)ccc1Oc1ccn2ncnc2c1 (centres unmarked) [Compound 142, (4Z)-4-[2-(dimethylamino)ethylidene]-2-{4-[(3-methyl-4-{[1,2,4]triazolo[1,5-a]pyridin-7-yloxy}phenyl)amino]pyrido[3,2-d]pyrimidin-6-yl}-2-azabicyclo[3.1.0]hexan-3-one] | 15.4 nM | 543 nM | – | – | – | 5.8 nM
Cc1cc(Nc2ncnc3cnc(N4CC/C(=C\CN(C)C)C4=O)cc23)ccc1Oc1cncc(F)c1 [Compound 155, (3E)-3-[2-(dimethylamino)ethylidene]-1-[4-({4-[(5-fluoropyridin-3-yl)oxy]-3-methylphenyl}amino)pyrido[3,4-d]pyrimidin-6-yl]pyrrolidin-2-one] | 17.9 nM | 331 nM | – | – | – | 35.4 nM
CN(C)C/C=C1\CCN(c2ccc3ncnc(Nc4ccc(Oc5ccn6ncnc6c5)cc4F)c3n2)C1=O [Compound 156, (E)-1-(4-((4-([1,2,4]triazolo[1,5-a]pyridin-7-yloxy)-2-fluorophenyl)amino)pyrido[3,2-d]pyrimidin-6-yl)-3-(2-(dimethylamino)ethylidene)pyrrolidin-2-one] | 21.7 nM | 7760 nM | – | – | – | 23.3 nM
